# According to patent publication US7135466B2 (Kirin Beer Kabushiki Kaisha, priority 1999, dated 2006):
# pIC50: −log10 of the molar value.
# Biological target: T1, c-kit (Homo sapiens, UniProt P10721)
# T1 construct: MO7e (human megakaryocytic leukemia cell line) which had been arrested for 20 hr; endogenous in cells; host or cells: MO7e human megakaryocytic leukemia cell line
# Assay: Inhibitory activity against c-kit autophosphorylation (MO7e cells, h-SCF)
# Assay type: cell-based
# Conditions: MO7e cells, 50 ng/ml h-SCF; read-out: c-kit IC50
# Method in brief: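 Growth-arrested (20 hr) MO7e; cpd in DMSO, 1 hr; h-SCF 50 ng/ml, 5 min; lyse. ELISA: anti-pTyr (PY-20) capture, anti-c-kit 1° Ab, HRP anti-rabbit 2° Ab, A450.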
# T1 sequence (P10721 26-976): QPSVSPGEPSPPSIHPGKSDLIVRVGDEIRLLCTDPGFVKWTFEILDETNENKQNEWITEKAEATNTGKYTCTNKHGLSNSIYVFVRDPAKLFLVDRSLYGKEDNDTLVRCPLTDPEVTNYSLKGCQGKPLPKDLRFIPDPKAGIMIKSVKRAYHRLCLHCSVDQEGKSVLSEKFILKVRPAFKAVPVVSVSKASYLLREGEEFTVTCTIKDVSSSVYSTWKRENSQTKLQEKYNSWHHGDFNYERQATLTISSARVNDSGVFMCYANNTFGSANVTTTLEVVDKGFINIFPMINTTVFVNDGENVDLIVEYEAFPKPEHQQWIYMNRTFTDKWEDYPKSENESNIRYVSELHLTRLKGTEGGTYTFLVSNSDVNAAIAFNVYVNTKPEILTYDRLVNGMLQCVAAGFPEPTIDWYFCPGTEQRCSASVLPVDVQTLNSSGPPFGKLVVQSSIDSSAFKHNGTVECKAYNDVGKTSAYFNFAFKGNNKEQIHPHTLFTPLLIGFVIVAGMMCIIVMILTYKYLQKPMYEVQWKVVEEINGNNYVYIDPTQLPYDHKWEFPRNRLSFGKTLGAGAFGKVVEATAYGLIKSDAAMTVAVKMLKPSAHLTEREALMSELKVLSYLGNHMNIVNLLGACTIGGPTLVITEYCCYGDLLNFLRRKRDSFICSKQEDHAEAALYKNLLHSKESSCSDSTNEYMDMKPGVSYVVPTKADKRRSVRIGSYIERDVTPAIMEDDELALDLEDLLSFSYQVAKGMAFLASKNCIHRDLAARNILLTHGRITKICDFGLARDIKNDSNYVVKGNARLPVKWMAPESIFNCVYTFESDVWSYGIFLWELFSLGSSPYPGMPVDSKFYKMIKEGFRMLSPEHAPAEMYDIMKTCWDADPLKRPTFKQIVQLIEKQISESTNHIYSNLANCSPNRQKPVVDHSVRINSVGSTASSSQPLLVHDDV
row,pIC50,SMILES
1,6.91,"COc1cc2nccc(Oc3ccc(OCC(=O)Nc4cccc(Cl)c4)cc3)c2cc1OC [Example 788, N1-(3-Chlorophenyl)-2-{4-[(6,7-dimethoxy-4-quinolyl)oxy]phenoxy}acetamide]"
2,7.32,"COc1ccc(NC(=O)COc2ccc(Oc3ccnc4cc(OC)c(OC)cc34)cc2)cc1 [Example 780, N1-(4-Methoxyphenyl)-2-{4-[(6,7-dimethoxy-4-quinolyl)oxy]phenoxy}acetamide]"
3,6.41,"COc1ccccc1NC(=O)COc1ccc(Oc2ccnc3cc(OC)c(OC)cc23)cc1 [Example 776, N1-(2-Methoxyphenyl)-2-{4-[(6,7-dimethoxy-4-quinolyl)oxy]phenoxy}acetamide]"

# Same assay, conditions: MO7e cells, h-SCF 50 ng/ml; read-out: c-kit IC50
row,pIC50,SMILES
1,7.46,"C=CCCCOC(=O)Nc1cc(C)c(Oc2ccnc3cc(OC)c(OC)cc23)cc1C [Example 267, 4-Pentenyl N-{4-[(6,7-dimethoxy-4-quinolyl)oxy]-2,5-dimethylphenyl}carbamate]"
2,7.47,"C=CCCCOC(=O)Nc1ccc(Oc2ccnc3cc(OC)c(OC)cc23)cc1 [Example 266, 4-Pentenyl N-{4-[(6,7-dimethoxy-4-quinolyl)oxy]phenyl}carbamate]"
3,6.39,"COc1cc2nccc(Oc3cc(C)c(NC(=O)SCc4ccc(C)cc4)cc3C)c2cc1OC [Example 109, 4-Methylbenzyl {4-[(6,7-dimethoxy-4-quinolyl)oxy]-2,5-dimethylanilino}methanethioate]"
4,6.71,"COc1cc2nccc(Oc3ccc(NC(=O)OCc4ccccc4Cl)cc3)c2cc1OC [Example 227, 2-Chlorobenzyl N-{4-[(6,7-dimethoxy-4-quinolyl)oxy]phenyl}carbamate]"

# Same assay, conditions: MO7e cells, h-SCF stimulation; read-out: c-kit IC50
row,pIC50,SMILES
1,6.31,"COc1ccc(C(=O)NC(=S)Nc2ccc(Oc3ccnc4cc(OC)c(OC)cc34)c(C)c2C)cc1 [Example 1087, N-{4-[(6,7-Dimethoxy-4-quinolyl)oxy]-2,3-dimethylphenyl}-N′-(4-methoxybenzoyl)thiourea]"
2,6.20,"COc1cc2nccc(Oc3ccc(NC(=S)NC(=O)c4ccc(Cl)cc4)cc3)c2cc1OC [Example 960, N-(4-Chlorobenzoyl)-N′-{4-[(6,7-dimethoxy-4-quinolyl)oxy]phenyl}thiourea]"
3,6.71,"COc1cc2ncnc(Oc3ccc(NC(=S)NC(=O)c4cccc(Br)c4)cc3)c2cc1OC [Example 958, N-(3-Bromobenzoyl)-N′-{4-[(6,7-dimethoxy-4-quinazolinyl)oxy]phenyl}thiourea]"
4,6.77,"COc1cc2nccc(Oc3ccc(NC(=S)NC(=O)CCc4ccccc4C)cc3F)c2cc1OC [Example 1134, N-{4-[(6,7-Dimethoxy-4-quinolyl)oxy]-3-fluorophenyl}-N′-[3-(2-methylphenyl)propanoyl]thiourea]"
5,7.11,"COc1ccc(C(=O)NC(=S)Nc2ccc(Oc3ccnc4cc(OC)c(OC)cc34)cc2)cc1OC [Example 1010, N-(3,4-Dimethoxybenzoyl)-N′-{4-[(6,7-dimethoxy-4-quinolyl)oxy]phenyl}thiourea]"
6,6.47,"COc1cc2nccc(Oc3ccc(NC(=S)NC(=O)c4cccc(F)c4)cc3F)c2cc1OC [Example 942, N-{4-[(6,7-Dimethoxy-4-quinolyl)oxy]-3-fluorophenyl}-N′-(3-fluorobenzoyl)thiourea]"
7,6.50,"COc1cc2nccc(Oc3ccc(NCCOc4c(Cl)cccc4Cl)cc3)c2cc1OC [Example 854, N-[2-(2,6-Dichlorophenoxy)ethyl]-N-{4-[(6,7-dimethoxy-4-quinolyl)oxy]phenyl}amine]"
8,6.72,"COc1cc2nccc(Oc3ccc(NC(=S)NC(=O)CCSC)cc3F)c2cc1OC [Example 1069, N-{4-[(6,7-Dimethoxy-4-quinolyl)oxy]-3-fluorophenyl}-N′-[3-(methylsulfanyl)propanoyl]thiourea]"
9,6.75,"COc1cc2nccc(Oc3ccc(NC(=S)NC(=O)N(C)c4ccccc4)cc3Cl)c2cc1OC [Example 1053, N-{3-Chloro-4-[(6,7-dimethoxy-4-quinolyl)oxy]phenyl}-{[(methylanilino)carbonyl]amino}methanethioamide]"
10,6.49,"COc1cccc(C(=O)NC(=S)Nc2ccc(Oc3ncnc4cc(OC)c(OC)cc34)cc2)c1 [Example 956, N-{4-[(6,7-Dimethoxy-4-quinazolinyl)oxy]phenyl}-N′-(3-methoxybenzoyl)thiourea]"
11,6.03,"COc1cc2ncnc(Oc3ccc(SCCCCOc4ccccc4F)cc3)c2cc1OC [Example 848, 4-(4-{[4-(2-Fluorophenoxy)butyl]sulfanyl}phenoxy)-6,7-dimethoxyquinazoline]"
12,6.50,"COc1cc2nccc(Oc3ccc(NC(=S)NC(=O)c4cccc(Br)c4)cc3Cl)c2cc1OC [Example 952, N-(3-Bromobenzoyl)-N′-{3-chloro-4-[(6,7-dimethoxy-4-quinolyl)oxy]phenyl}thiourea]"
13,6.28,"COc1cc2nccc(Oc3ccc(NC(=S)NC(=O)c4ccc(Cl)cc4)cc3F)c2cc1OC [Example 971, N-(4-Chlorobenzoyl)-N′-{4-[(6,7-dimethoxy-4-quinolyl)oxy]-3-fluorophenyl}thiourea]"
14,6.72,"COc1cc2nccc(Oc3ccc(N(C)CCOc4ccc(F)cc4)cc3)c2cc1OC [Example 867, N-{4-[(6,7-Dimethoxy-4-quinolyl)oxy]phenyl}-N-[2-(4-fluorophenoxy)ethyl]-N-methylamine]"
15,6.26,"COc1cc2nccc(Oc3ccc(NC(=S)NC(=O)C4CC4c4ccccc4)cc3Cl)c2cc1OC (centres unmarked) [Example 1059, N-{3-Chloro-4-[(6,7-dimethoxy-4-quinolyl)oxy]phenyl}-N′-[(2-phenylcyclopropyl)carbonyl]thiourea]"
16,6.55,"COc1cc2nccc(Oc3ccc(NC(=S)NC(=O)CCCCl)c(F)c3)c2cc1OC [Example 1066, N-(4-Chlorobutanoyl)-N′-{4-[(6,7-dimethoxy-4-quinolyl)oxy]-2-fluorophenyl}thiourea]"
17,6.37,"COc1cc2nccc(Oc3ccc(NC(=S)NC(=O)c4cccc(C)c4)c(F)c3)c2cc1OC [Example 936, N-{4-[(6,7-Dimethoxy-4-quinolyl)oxy]-2-fluorophenyl}-N′-(3-methylbenzoyl)thiourea]"
18,6.88,"COc1cc2nccc(Oc3ccc(NC(=S)NC(=O)c4cccc(C(F)(F)F)c4)cc3F)c2cc1OC [Example 945, N-{4-[(6,7-Dimethoxy-4-quinolyl)oxy]-3-fluorophenyl}-N′-[3-(trifluoromethyl)benzoyl]thiourea]"
19,6.78,"COc1cc2nccc(Oc3ccc(NC(=S)NC(=O)c4cccc(Br)c4)cc3)c2cc1OC [Example 935, N-(3-Bromobenzoyl)-N′-{4-[(6,7-dimethoxy-4-quinolyl)oxy]phenyl}thiourea]"
20,6.95,"COc1cc2nccc(Oc3ccc(NC(=S)NC(=O)c4cccc(C)c4)cc3C)c2cc1OC [Example 1110, N-{4-[(6,7-Dimethoxy-4-quinolyl)oxy]-3-methylphenyl}-N′-(3-methylbenzoyl)thiourea]"

# Same assay, conditions: Mo7e, figure in parentheses in −( ); at 1000 nM
row,inhibition at 1 µM [%],SMILES
1,30,"COc1cc2nccc(Oc3ccc(NC(=S)NC(=O)c4ccc(Cl)cc4Cl)cc3F)c2cc1OC [Example 1014, N-(2,4-Dichlorobenzoyl)-N′-{4-[(6,7-dimethoxy-4-quinolyl)oxy]-3-fluorophenyl}thiourea]"
2,38,"COc1cc2nccc(Oc3ccc(NC(=S)NC(=O)c4ccccc4C(F)(F)F)c(F)c3)c2cc1OC [Example 910, N-{4-[(6,7-Dimethoxy-4-quinolyl)oxy]-2-fluorophenyl}-N′-[2-(trifluoromethyl)benzoyl]thiourea]"
3,16,"COc1cc2ncnc(Oc3ccc(NC(=S)NC(=O)c4ccc(Cl)cc4Cl)cc3)c2cc1OC [Example 1207, N-(2,4-Dichlorobenzoyl)-N′-{4-[(6,7-dimethoxy-4-quinazolinyl)oxy]phenyl}thiourea]"
4,31,"COc1cc2ncnc(Oc3ccc(NC(=S)NC(=O)c4ccccc4)cc3)c2cc1OC [Example 926, N-Benzoyl-N′-{4-[(6,7-dimethoxy-4-quinazolinyl)oxy]phenyl}thiourea]"
5,41,"COc1cc2nccc(Oc3ccc(NC(=S)NC(=O)c4cccc(C)c4)c(C)c3)c2cc1OC [Example 1098, N-{4-[(6,7-Dimethoxy-4-quinolyl)oxy]-2-methylphenyl}-N′-(3-methylbenzoyl)thiourea]"
6,14,"COc1cc2nccc(Oc3ccc([S+]([O-])CCOc4ccc(Cl)cc4Cl)cc3)c2cc1OC (centres unmarked) [Example 840, [2-(2,4-Dichlorophenoxy)ethyl]{4-[(6,7-dimethoxy-4-quinolyl)oxy]phenyl} sulfoxide]"
7,39,"COc1cc2nccc(Oc3ccc(NC(=S)NC(=O)c4cccc(F)c4)c(C)c3)c2cc1OC [Example 1091, N-{4-[(6,7-Dimethoxy-4-quinolyl)oxy]-2-methylphenyl}-N′-(3-fluorobenzoyl)thiourea]"
8,18,"COc1cc2nccc(Oc3ccc(NC(=S)NC(=O)c4ccccc4F)c(C)c3)c2cc1OC [Example 1094, N-{4-[(6,7-Dimethoxy-4-quinolyl)oxy]-2-methylphenyl}-N′-(2-fluorobenzoyl)thiourea]"
9,29,"COc1cc2nccc(Oc3ccc(NC(=S)NC(=O)c4ccccc4F)c(F)c3)c2cc1OC [Example 906, N-{4-[(6,7-Dimethoxy-4-quinolyl)oxy]-2-fluorophenyl}-N′-(2-fluorobenzoyl)thiourea]"
10,10,"COc1cc2nccc(Oc3ccc(NC(=S)NC(=O)c4c(Cl)cccc4Cl)cc3Cl)c2cc1OC [Example 1115, N-{3-Chloro-4-[(6,7-dimethoxy-4-quinolyl)oxy]phenyl}-N′-(2,6-dichlorobenzoyl)thiourea]"

# Same assay, conditions: Mo7e, figure within parentheses in −( ) or >1000( ); at 1000 nM
row,inhibition at 1 µM [%],SMILES
1,28,"CCCCC(CCCC)OC(=O)Nc1ccc(Oc2ncnc3cc(OC)c(OC)cc23)cc1[N+](=O)[O-] [Example 508, 1-Butylpentyl N-{4-[(6,7-dimethoxy-4-quinazolinyl)oxy]-2-nitrophenyl}carbamate]"
